Assay results from ChEMBL document CHEMBL1201862, “PubChem BioAssay data set” (2004).
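Step 1: Grow cells in 96-well plates. Step 2: Expose to compound for 48 hours at 5 concentrations. Step 3: Interpolate endpoints linearly; if unreached, use highest concentration. GI50 = concentration required for 50% inhibition of growth.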 The source made the active and inactive calls. No stated cut-off is given here; in the data, active = GI50 up to about 1.1 µM and inactive = higher.

How the values were obtained:
Experiment in all cases: DTP human tumour cell line panel, 48 h
[1] = system: COLO 205
[2] = system: DU-145
[3] = system: HCT-15
[4] = system: HOP-92
[5] = system: Hs-578T
[6] = system: MOLT-4
[7] = system: Malme-3M
[8] = system: NCI-H226
[9] = system: OVCAR-3
[10] = system: OVCAR-4
[11] = system: RXF 393
[12] = system: SF-268
[13] = system: SF-295
[14] = system: SK-MEL-28
[15] = system: SK-MEL-5
[16] = system: SN12C
[17] = system: SNB-19
[18] = system: T47D
[19] = system: UO-31
[20] = system: M19-MEL

O=C(O)C(CCc1ccccn1)c1ccccc1 (configuration not stated)
GI50 [1]: > 100 µM (inactive) | GI50 [2]: > 100 µM (inactive) | GI50 [3]: > 100 µM | GI50 [4]: > 50.4 µM (inactive) | GI50 [5]: > 100 µM (inactive) | GI50 [6]: > 100 µM (inactive) | GI50 [7]: > 100 µM (inactive) | GI50 [8]: > 100 µM (inactive) | GI50 [9]: > 100 µM (inactive) | GI50 [10]: > 100 µM (inactive) | GI50 [11]: > 100 µM (inactive) | GI50 [12]: > 100 µM (inactive) | GI50 [13]: > 100 µM (inactive) | GI50 [14]: > 100 µM (inactive) | GI50 [15]: > 100 µM (inactive) | GI50 [16]: > 100 µM (inactive) | GI50 [17]: > 100 µM (inactive) | GI50 [18]: > 100 µM (inactive) | GI50 [19]: > 100 µM (inactive)

Oc1c(Br)c(-c2ccccc2)nc2ccccc12
GI50 [1]: > 21.7 µM (inactive) | GI50 [2]: > 69.5 µM (inactive) | GI50 [3]: > 62.5 µM | GI50 [4]: 8 µM (inactive) | GI50 [5]: > 89.1 µM (inactive) | GI50 [6]: 8.15 µM (inactive) | GI50 [7]: 53.2 µM (inactive) | GI50 [8]: 8.47 µM (inactive) | GI50 [9]: 50.5 µM (inactive) | GI50 [10]: 39.6 µM (inactive) | GI50 [11]: 63.1 µM (inactive) | GI50 [12]: > 10 µM (inactive) | GI50 [13]: 8.75 µM (inactive) | GI50 [14]: 89.1 µM (inactive) | GI50 [15]: 8.15 µM (inactive) | GI50 [16]: 6.67 µM (inactive) | GI50 [17]: > 10 µM (inactive) | GI50 [18]: 8.3 µM (inactive) | GI50 [19]: 4.71 µM (inactive)

Cc1cc(O)nc(NN2C(Cl)C(=O)C2c2cccc(O)c2)n1 (configuration not stated)
GI50 [1]: 39.4 µM (inactive) | GI50 [3]: 5.74 µM | GI50 [4]: 4.67 µM (inactive) | GI50 [20]: 6.19 µM (inactive) | GI50 [6]: 5.38 µM (inactive) | GI50 [9]: 3.14 µM (inactive) | GI50 [10]: > 100 µM (inactive) | GI50 [11]: 3.48 µM (inactive) | GI50 [12]: 5.62 µM (inactive) | GI50 [14]: 26.5 µM (inactive) | GI50 [15]: 12.2 µM (inactive) | GI50 [16]: 6.31 µM (inactive) | GI50 [17]: 3.48 µM (inactive) | GI50 [19]: 3.83 µM (inactive)

CCOC(=O)C(NC(=O)c1ccccc1)(Nc1ccc(S(=O)(=O)Nc2cc(C)nc(C)n2)cc1)C(F)(F)F (configuration not stated)
GI50 [1]: > 100 µM (inactive) | GI50 [2]: > 100 µM (inactive) | GI50 [3]: > 100 µM | GI50 [4]: > 100 µM (inactive) | GI50 [5]: > 100 µM (inactive) | GI50 [6]: > 100 µM (inactive) | GI50 [7]: > 100 µM (inactive) | GI50 [8]: > 100 µM (inactive) | GI50 [9]: > 100 µM (inactive) | GI50 [10]: > 100 µM (inactive) | GI50 [11]: > 100 µM (inactive) | GI50 [12]: > 100 µM (inactive) | GI50 [13]: > 100 µM (inactive) | GI50 [14]: > 100 µM (inactive) | GI50 [15]: > 100 µM (inactive) | GI50 [16]: > 100 µM (inactive) | GI50 [17]: > 100 µM (inactive) | GI50 [18]: > 100 µM (inactive) | GI50 [19]: > 100 µM (inactive)

COC1/C=C/C(C)C(C(C)C(OC)C(C)CCC(=O)C(C)C(C/C=C/N(C)C=O)OC)OC(=O)/C=C/C=C(\C)CC(OC)C(OC)C2=CC(=O)O[C@@H](C(C)C(OC)CC(OC)/C=C/C(C)C(O)C1)[C@H]2O (some centres not stated)
GI50 [1]: 0.0721 µM (active) | GI50 [2]: 0.373 µM (active) | GI50 [3]: 0.0479 µM | GI50 [4]: 0.0284 µM (active) | GI50 [5]: 0.0336 µM (active) | GI50 [6]: 0.105 µM (active) | GI50 [7]: 0.148 µM (active) | GI50 [8]: 0.06 µM (active) | GI50 [9]: 0.0681 µM (active) | GI50 [10]: 0.121 µM (active) | GI50 [11]: 0.121 µM (active) | GI50 [12]: 0.129 µM (active) | GI50 [13]: 0.115 µM (active) | GI50 [14]: 0.192 µM (active) | GI50 [15]: 0.0904 µM (active) | GI50 [16]: 0.126 µM (active) | GI50 [17]: 0.171 µM (active) | GI50 [18]: 0.208 µM (active) | GI50 [19]: 0.137 µM (active)

N#Cc1ccccc1NC(=O)C(O)C(O)C(O)C(O)C=O (configuration not stated)
GI50 [1]: > 100 µM (inactive) | GI50 [2]: > 100 µM (inactive) | GI50 [3]: > 100 µM | GI50 [4]: > 100 µM (inactive) | GI50 [5]: > 100 µM (inactive) | GI50 [6]: > 100 µM (inactive) | GI50 [7]: > 100 µM (inactive) | GI50 [8]: > 100 µM (inactive) | GI50 [9]: > 100 µM (inactive) | GI50 [10]: > 100 µM (inactive) | GI50 [11]: > 100 µM (inactive) | GI50 [12]: > 100 µM (inactive) | GI50 [13]: > 100 µM (inactive) | GI50 [14]: > 100 µM (inactive) | GI50 [15]: > 100 µM (inactive) | GI50 [16]: > 100 µM (inactive) | GI50 [17]: > 100 µM (inactive) | GI50 [18]: > 100 µM (inactive) | GI50 [19]: > 100 µM (inactive)

O=C(O)CCCCCNC(=O)CCC(CN(CC(=O)OCc1ccccc1)CC(=O)OCc1ccccc1)N(CC(=O)OCc1ccccc1)CC(=O)OCc1ccccc1 (configuration not stated)
GI50 [1]: 16.7 µM (inactive) | GI50 [2]: 19.5 µM (inactive) | GI50 [3]: 17.9 µM | GI50 [4]: 13.3 µM (inactive) | GI50 [5]: 20.5 µM (inactive) | GI50 [6]: 15.2 µM (inactive) | GI50 [7]: 19.2 µM (inactive) | GI50 [8]: 22.9 µM (inactive) | GI50 [9]: 17.3 µM (inactive) | GI50 [10]: 16.9 µM (inactive) | GI50 [11]: 14.7 µM (inactive) | GI50 [12]: 18.7 µM (inactive) | GI50 [13]: 17.3 µM (inactive) | GI50 [14]: 19 µM (inactive) | GI50 [15]: 17.3 µM (inactive) | GI50 [16]: 18.4 µM (inactive) | GI50 [17]: 17.9 µM (inactive) | GI50 [18]: 17.2 µM (inactive) | GI50 [19]: 15.8 µM (inactive)

COc1cc(C2c3cc4c(cc3OC(NNc3ccccc3)C2C)OCO4)cc(OC)c1O (configuration not stated)
GI50 [1]: 2.93 µM (inactive) | GI50 [2]: 2.62 µM (inactive) | GI50 [3]: 0.313 µM | GI50 [4]: 9.2 µM (inactive) | GI50 [5]: 2.83 µM (inactive) | GI50 [6]: 0.275 µM (active) | GI50 [7]: 3.42 µM (inactive) | GI50 [8]: 3.56 µM (inactive) | GI50 [9]: 2.36 µM (inactive) | GI50 [10]: 13.3 µM (inactive) | GI50 [11]: 1.92 µM (inactive) | GI50 [12]: 2.58 µM (inactive) | GI50 [13]: 0.813 µM (active) | GI50 [14]: 4.22 µM (inactive) | GI50 [15]: 1.3 µM (inactive) | GI50 [16]: 0.54 µM (active) | GI50 [17]: 6.64 µM (inactive) | GI50 [18]: 0.757 µM (active) | GI50 [19]: 1.03 µM (active)
